Assay [1] deals with CDK20. Conditions: cited from earlier work.
For assay [2], the target named is T1, CDK20/CycT1 (Homo sapiens, UniProt Q8IZL9).
T1 construct: purchased Reaction Biology Corp. (33PanQinase Activity Assay service)
Further details: method as in doi:10.1158/1538-7445.AM2016-2821.

Assay [3] addresses T1, CDK20/CycT1. In words: CDK20 kinase activity assay (radiometric 33PanQinase). In kind it is biochemical. The method, then: CDK20 kinase activity assay
A radiometric protein kinase assay ([33]PanQinase® ActivityAssay, available as a service product from Reaction Biology Corp.) was used for measuring the kinase activity of the CDK20 kinases. This assay was performed in 96-well FlashPlates™ from PerkinElmer (Boston, MA, USA) in a 50 μl reaction volume. The reaction cocktail was pipetted in four steps in the following order: (a) 25 μl of assay buffer (standard buffer/[γ-^33P]-ATP); (b) 10 μl of ATP solution (in H2O); (c) 5 μl of test compound (in 10% DMSO); (d) 10 μl of enzyme/substrate mixture. The assay for CDK20 kinase contained 70 mM HEPES-NaOH pH 7.5, 3 mM MgCl2, 3 mM MnCl2, 3 μM Na-orthovanadate, 1.2 mM DTT, 50 μg ml^−1 PEG20000, 1.0 μM ATP [γ-[33]P],-ATP (approx. 7 × 10^5 cpm per well), and 200 ng/50 μl kinase protein, and the substrate was 4.0 μg/50 μl. The compounds were dissolved to 1 × 10^−3 M in volumes of 100% DMSO. The 1 × 10^−3 M stock solutions were subjected to a serial, semi-logarithmic dilution using 100% DMSO as a solvent. The final volume of the assay was 50 μL All compounds were tested at 10 final assay concentrations in the range from 1 × 10^−5 M to 3 × 10^−10 M. The final DMSO concentration in the reaction cocktails was 1% in all cases. The “low control” was defined as the value that reflects unspecific binding of radioactivity to the plate in the absence of a protein kinase but in the presence of the substrate. The “high control” was defined as the full activity in the absence of any inhibitor. The difference between high and low controls was taken as 100% activity. As part of the data evaluation the low control value from a particular plate was subtracted from the high control value as well as from all 80 “compound values” of the corresponding plate.
The residual activities for each concentration and the compound’s IC50 values were calculated using Quattro Workflow V3.1.1 (Quattro Research GmbH, Munich, Germany; http://www.quattro-research.com/). […] The fitting method used was a least-squares fit.

The target of assay [4] is T2, CDK20 (Homo sapiens, UniProt Q8IZL9).
T2 construct: purchased DiscoverX/Eurofins (KINOMEscan service); host or cells: HEK-293
T2 sequence (Q8IZL9 whole entry): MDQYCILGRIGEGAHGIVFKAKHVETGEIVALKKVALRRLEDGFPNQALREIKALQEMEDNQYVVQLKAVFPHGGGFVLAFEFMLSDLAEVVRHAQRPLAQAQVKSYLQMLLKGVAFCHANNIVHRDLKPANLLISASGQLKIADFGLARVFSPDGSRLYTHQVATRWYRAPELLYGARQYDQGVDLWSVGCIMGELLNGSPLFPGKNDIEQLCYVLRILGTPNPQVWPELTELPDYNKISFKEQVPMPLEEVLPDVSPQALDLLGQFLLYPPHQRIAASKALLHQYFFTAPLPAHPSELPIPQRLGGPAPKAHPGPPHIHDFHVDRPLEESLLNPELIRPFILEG
The assay can be described thus: CDK20 human CMGC kinase binding assay (KINOMEscan). The conditions noted are these: for Kd: CDK20 kinase binding assay, mean ± SD of three independent experiments; for fold improvement in binding affinity compared to ISM042-2-001: ratio of Kd values. Here is the method:
CDK20 human CMGC kinase binding assay
The assay was available as a product of the KINOMEscan service from DiscoverX/Eurofins. In brief, CDK20 proteins were produced in HEK-293 cells and subsequently tagged with DNA for qPCR detection. […] The liganded beads were blocked with excess biotin and washed with blocking buffer (SeaBlock (Pierce), 1% BSA, 0.05% Tween 20, and 1 mM DTT) to remove the unbound ligand and to reduce non-specific binding. […] Binding constants (Kds) were determined using an 11-point 3-fold compound dilution series with three DMSO control points. […] The compounds were then diluted directly into the assays such that the final concentration of DMSO was 0.9%. All reactions were performed in polypropylene 384-well plates. Each has a final volume of 0.02 ml. […] The kinase concentration in the eluates was measured by qPCR. Kds were calculated with a standard dose–response curve. The curves were fitted using a non-linear least squares fit with the Levenberg–Marquardt algorithm.

The subject of assay [5] is Huh7. In words: Cell viability assay (Celltiter Glo), Huh7. Type of assay: cell-based. The conditions noted are these: Homo sapiens, Huh-7, 72 h; HCC cell line with CDK20 overexpression; 3 days incubation; read-out: anti-proliferation IC50 in Huh7. Here is the method:
(§1) The Huh7 and HEK293 cells were maintained in DMEM with 10% FBS and 1% streptomycin and penicillin in 5% CO2. When the confluence of these two cell lines reached 80–90%, cells were harvested and resuspended, and the proper cells were added into a 384-well plate as below: Huh-7: 650 cells per well; HEK-293 : 300 cells per well. The final testing concentrations of the compounds were: 10 000, 3333, 1111, 370, 123, 41.2, 13.7, 4.57, 1.52, and 0.51 nM. The cells were incubated in a 37 °C, 5% CO2 incubator for 3 days, and then a reagent was added (Celltiter Glo assay kit) to the cells for testing and a Multiplate reader was used to record the chemiluminescence value. And GraphPad Prism 9 software was used to calculate IC50 and plot the effect–dose curve of compounds. The assays were conducted at Pharmaron Inc. in a fee-for-service mode.
Background: Cellular ATP, detected with luciferase, serves as a proxy for viable cell number.

For assay [6], the system named is HEK293. In words: Cell viability assay (Celltiter Glo), counter screen HEK293. Type of assay: cell-based. Conditions: Homo sapiens, HEK293, 72 h; counter screen cell line; 3 days incubation; read-out: anti-proliferation IC50 in HEK293. Here is the method: as §1
Where [7] appears, read: read-out: CDK20/CycT1 IC50; poster of Mueller et al.; cited from earlier work.
[8] abbreviates: CDK20 kinase activity assay, 1.0 μM ATP, values with SD from three independent experiments, read-out: CDK20/CycT1 IC50.

Molecules are shown by their SMILES. Like-named read-outs stand apart in the source and are kept apart here. Some results are limits rather than exact numbers.

Data on 18 compounds can be found in paper PMC9906638, “AlphaFold accelerates artificial intelligence powered drug discovery: efficient discovery of a novel CDK20 small molecule inhibitor” (Chemical Science, 2023).

T1 sequence (Q8IZL9 whole entry): as above
T1 sequence (O60563 whole entry partner): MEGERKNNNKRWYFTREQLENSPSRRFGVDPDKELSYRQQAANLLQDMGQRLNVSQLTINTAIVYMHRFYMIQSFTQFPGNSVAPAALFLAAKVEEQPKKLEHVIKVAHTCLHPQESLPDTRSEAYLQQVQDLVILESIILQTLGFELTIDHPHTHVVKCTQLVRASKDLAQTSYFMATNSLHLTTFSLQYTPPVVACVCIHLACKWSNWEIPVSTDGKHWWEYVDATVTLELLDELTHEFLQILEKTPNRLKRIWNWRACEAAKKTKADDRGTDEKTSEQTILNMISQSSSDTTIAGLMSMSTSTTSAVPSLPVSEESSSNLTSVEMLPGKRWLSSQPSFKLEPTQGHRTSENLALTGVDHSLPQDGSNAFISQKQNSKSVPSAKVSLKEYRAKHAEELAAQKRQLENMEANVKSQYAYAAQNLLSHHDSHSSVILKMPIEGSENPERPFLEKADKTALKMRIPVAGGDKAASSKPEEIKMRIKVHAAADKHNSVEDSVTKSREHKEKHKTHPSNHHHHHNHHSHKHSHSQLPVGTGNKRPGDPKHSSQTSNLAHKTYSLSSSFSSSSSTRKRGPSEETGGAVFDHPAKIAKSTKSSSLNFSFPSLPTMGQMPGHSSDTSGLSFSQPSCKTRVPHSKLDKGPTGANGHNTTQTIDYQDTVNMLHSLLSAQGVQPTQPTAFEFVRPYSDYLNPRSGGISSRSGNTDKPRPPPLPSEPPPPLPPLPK

Turning to `O=C(Nc1ccc2cc(C(=O)Nc3nccs3)ccc2c1)c1ccc(Cl)c(Cl)c1` [AAPK-25], in assay [1], the Kd was 8.02 µM.
Turning to `CC(C)(CO)CNCc1ccc(Nc2ncc(SCc3ncc(C(C)(C)C)o3)s2)nc1` [BMS-357075], the Kd in assay [1] (disclosed by Eurofins) is 0.056 µM.
As to `CCc1cnn2c(NCc3ccc[n+]([O-])c3)cc(N3CCCC[C@H]3CCO)nc12` [Dinaciclib], in assay [2] (setting [7]), the IC50 is 2.86 µM.
In the case of `CNC(=O)c1cc(Nc2ncc3ccccc3n2)c[nH]1` [ISM042-2-001], the IC50 in assay [3] (setting [8]) was more than 6 µM. Also, the Kd in assay [4] was found to be 9.2 ± 0.5 µM.
`Cn1cc(Oc2ccnc(NC3(C)CC3)c2)cn1` [ISM042-2-004] showed a dissociation constant (Kd) in assay [4] of more than 30 µM.
On the same count and under the same terms, to `NC(=O)c1cc(N2CCC(F)(F)CC2)nc(-c2cc[nH]n2)n1` [ISM042-2-007] belongs more than 30 µM; to `c1cc(-n2cc(C3COC3)nn2)cc(NC2CC2)n1` [ISM042-2-009], more than 30 µM; to `CCc1ccc(-c2cccc3nc(NC4CCCC4)[nH]c23)[nH]c1=O` [ISM042-2-015], more than 30 µM.
`Cc1ccnc(-n2cncc2N2CC3(COC3)C2)n1` [ISM042-2-019] yielded a Kd in assay [4] of more than 30 µM.
On the same count and under the same terms, to `c1cc(-c2nc3cnncc3s2)nc(N[C@H]2CCNC2)n1` [ISM042-2-025] belongs more than 30 µM.
For `CNC(=O)c1cc(Nc2ncc3ccc(-c4cn[nH]c4)cc3n2)c[nH]1` [ISM042-2-048], the IC50 in assay [5] stood at 0.209 ± 0.0033 µM; in assay [6] it was 1.71 ± 0.67 µM; in assay [3] (setting [8]), 0.0334 ± 0.0226 µM. The Kd in assay [4] stood at 0.567 ± 0.256 µM. For the same compound, the “fold improvement in binding affinity compared to ISM042-2-001” value in assay [4] is listed as 15 fold.
Turning to `CNC(=O)c1cc(Nc2ncc3ccc(=O)n(C4CCCC4)c3n2)c[nH]1` [ISM042-2-049], in assay [3] (setting [8]), the IC50 worked out at 0.468 ± 0.006 µM. In assay [4], the Kd was found to be 0.36 ± 0.0141 µM and the “fold improvement in binding affinity compared to ISM042-2-001” value was determined as 24 fold.
Take `CNC(=O)c1cccc(Nc2ncc3ccccc3n2)c1` [ISM042-2-050]: in assay [3] (setting [8]), the IC50 came out at 7.1 ± 0.478 µM. In assay [4], this compound showed a Kd of 5.33 ± 1.19 µM.
Turning to `CN(C)CCNC(=O)c1cc(Nc2ncc3ccccc3n2)c[nH]1` [ISM042-2-052], the IC50 in assay [3] was more than 6 µM. For the same compound, in assay [4], binding was put at a Kd of 18.7 ± 6.34 µM.
In the case of `CN1CCN(CCNC(=O)c2cc(Nc3ncc4ccccc4n3)c[nH]2)CC1` [ISM042-2-053], in assay [3] (setting [8]), the IC50 was determined as 7.8 ± 0.125 µM. This compound also yielded a Kd in assay [4] of 17.7 ± 4.03 µM.
Consider `CN1CCC(NC(=O)c2cc(Nc3ncc4ccccc4n3)c[nH]2)CC1` [ISM042-2-055], for which, in assay [3] (setting [8]), the IC50 came to 4.08 ± 0.575 µM. In addition, the affinity in assay [4], expressed as Kd, was 14.3 ± 1.7 µM.
With `CC(=O)c1c(C)c2cnc(Nc3ccc(N4CCNCC4)cn3)nc2n(C2CCCC2)c1=O` [Palbociclib], the IC50 in assay [2] (poster of Mueller et al.; read-out: CDK20/CycT1 IC50; cited from earlier work) was 1.26 µM.
For `CC[C@H](CO)Nc1nc(NCc2ccccc2)c2ncn(C(C)C)c2n1` [Roscovitine], the IC50 in assay [2] (setting [7]) is 8.68 µM.

A word on the Kd: it is a measure of binding affinity in units of concentration.
